Among the data in ChEMBL document CHEMBL2331173, “Water-mediated interactions influence the binding of thapsigargin to sarco/endoplasmic reticulum calcium adenosinetriphosphatase” (J Med Chem, 2013) are Kd values, retold here.

The target of the assay is Sarcoplasmic/endoplasmic reticulum calcium ATPase 1 (Oryctolagus cuniculus, UniProt P04191). Nature of the assay: Binding affinity to SERCA1a in sarcoplasmic reticulum vesicles of rabbit skeletal muscle after 2.5 to 6 mins by spectrophotometric analysis. More on the design: species or system Muscle tissue.
Sequence of Sarcoplasmic/endoplasmic reticulum calcium ATPase 1 (P04191 whole entry): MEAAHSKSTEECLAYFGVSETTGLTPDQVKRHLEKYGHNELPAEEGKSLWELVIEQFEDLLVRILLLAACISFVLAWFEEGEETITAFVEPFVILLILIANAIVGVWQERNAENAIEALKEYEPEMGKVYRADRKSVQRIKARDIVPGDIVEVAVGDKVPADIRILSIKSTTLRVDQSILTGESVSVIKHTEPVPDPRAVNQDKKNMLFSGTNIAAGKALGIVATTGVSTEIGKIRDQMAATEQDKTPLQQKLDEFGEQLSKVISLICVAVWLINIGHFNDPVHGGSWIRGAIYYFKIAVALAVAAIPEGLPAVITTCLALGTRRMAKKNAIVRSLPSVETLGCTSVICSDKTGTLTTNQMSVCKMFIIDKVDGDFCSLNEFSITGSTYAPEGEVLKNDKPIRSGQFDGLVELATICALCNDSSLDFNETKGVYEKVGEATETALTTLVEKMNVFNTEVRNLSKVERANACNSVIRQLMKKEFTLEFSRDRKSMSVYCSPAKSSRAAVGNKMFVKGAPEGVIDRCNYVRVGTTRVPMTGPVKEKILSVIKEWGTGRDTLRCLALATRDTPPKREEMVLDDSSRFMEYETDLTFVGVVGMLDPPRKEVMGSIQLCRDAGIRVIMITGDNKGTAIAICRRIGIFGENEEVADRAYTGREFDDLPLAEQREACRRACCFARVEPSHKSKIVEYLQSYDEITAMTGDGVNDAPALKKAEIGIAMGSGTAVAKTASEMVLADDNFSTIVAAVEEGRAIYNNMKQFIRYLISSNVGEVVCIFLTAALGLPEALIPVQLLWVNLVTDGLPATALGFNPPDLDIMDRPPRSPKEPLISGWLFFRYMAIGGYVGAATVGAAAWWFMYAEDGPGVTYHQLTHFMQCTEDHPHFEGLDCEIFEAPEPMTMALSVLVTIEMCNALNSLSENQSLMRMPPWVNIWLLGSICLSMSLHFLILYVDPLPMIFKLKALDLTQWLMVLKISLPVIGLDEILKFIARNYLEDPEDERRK
On to `C/C=C(/C)C(=O)O[C@H]1C(C)=C2[C@H]([C@@H]1OC(=O)CCCCCCC)[C@@](C)(OC(C)=O)C[C@H](OC(=O)CCC)[C@@]1(OC(=O)CCCCC)[C@H]2OC(=O)[C@@]1(C)O`, for which the Kd was found to be 8.5 nM. As to `C/C=C(/C)C(=O)O[C@H]1C(C)=C2[C@H]([C@@H]1OC(=O)CCCCCCC)[C@@](C)(OC(C)=O)C[C@H](OC(=O)CCC)[C@@]1(OC(=O)CCCCCCC)[C@H]2OC(=O)[C@@]1(C)O`, the dissociation constant Kd came to 55 nM. Then `C/C=C(/C)C(=O)O[C@H]1C(C)=C2[C@H]([C@@H]1OC(=O)CCCCCCC)[C@@](C)(OC(C)=O)C[C@H](O)[C@@]1(O)[C@H]2OC(=O)[C@@]1(C)O` [DEBUTANOYLTHAPSIGARGIN], with 10 nM; and `C/C=C(/C)C(=O)O[C@H]1C(C)=C2[C@H]([C@@H]1OC(=O)CCCCCCC)[C@@](C)(OC(C)=O)C[C@H](OC(=O)CCC)[C@]13O[C@]1(C)C(=O)O[C@@H]23`, with 13 nM. To `C/C=C(/C)C(=O)O[C@H]1C(C)=C2[C@H]([C@@H]1OC(=O)CCCCCCC)[C@@](C)(OC(C)=O)C[C@H](OC(=O)CCC)[C@@]1(O)[C@H]2O[C@H]2N=C(C)O[C@]21C` belongs 1.7 nM. Take `C/C=C(/C)C(=O)O[C@H]1C(C)=C2[C@H]([C@@H]1OC(=O)CCCCCCC)[C@@](C)(OC(C)=O)C[C@H](OC(=O)CCC)[C@@]1(O)[C@H]2OC(=O)[C@@]1(C)O` [THAPSIGARGIN]: the Kd came to 0.2 nM. Take `C/C=C(/C)C(=O)O[C@H]1C(C)=C2[C@H]([C@@H]1OC(=O)CCCCCCC)[C@@](C)(OC(C)=O)C[C@H](OC(=O)CCC)[C@@]1(OC(=O)CCC)[C@H]2OC(=O)[C@@]1(C)O`: the dissociation constant (Kd) is 11 nM. Then `C/C=C(/C)C(=O)O[C@H]1C(C)=C2[C@H]([C@@H]1OC(=O)c1ccccc1)[C@@](C)(OC(C)=O)C[C@H](OC(=O)CCC)[C@@]1(O)[C@H]2OC(=O)[C@@]1(C)O`, with 1.5 nM; and `C/C=C(/C)C(=O)O[C@H]1C(C)=C2[C@H]([C@@H]1OC(=O)CCCCCCC)[C@@](C)(OC(C)=O)C[C@H](OC(=O)CCC)[C@@]1(O)[C@H]2O[C@H](OC(C)=O)[C@@]1(C)OC(C)=O` (relative stereo), with 9.4 nM; and `C/C=C(/C)C(=O)O[C@H]1C(C)=C2[C@H]([C@@H]1OC(=O)CCCCCCC)[C@@](C)(OC(C)=O)C[C@H](OC(=O)CCC)[C@@]1(OC(C)=O)[C@H]2OC(=O)[C@@]1(C)O`, with 2.6 nM. Then `C/C=C(/C)C(=O)O[C@H]1C(C)=C2[C@H]([C@@H]1OC(=O)CCCCCCC)[C@@](C)(OC(C)=O)C[C@H](OC(=O)CCC)[C@@]1(O)[C@H]2O[C@H]2N=C(CCOCC)O[C@]21C`, with 79 nM; and `C/C=C(/C)C(=O)O[C@H]1C(C)=C2[C@H]([C@@H]1OC(=O)CCCCCCC)[C@@](C)(OC(=O)CCCCCCC)C[C@H](OC(=O)CCC)[C@@]1(O)[C@H]2OC(=O)[C@@]1(C)O`, with 2.5 nM; and `C/C=C(/C)C(=O)O[C@H]1C(C)=C2[C@H]([C@@H]1OC(=O)CCCCCCC)[C@@](C)(OC(C)=O)C[C@H](OC(=O)CCC)[C@@]1(OC(=O)C(C)C)[C@H]2OC(=O)[C@@]1(C)O`, with 13 nM. To `C/C=C(/C)C(=O)O[C@H]1C(C)=C2[C@H]([C@@H]1OC(=O)CCCCCCC)[C@@](C)(OC(C)=O)C[C@H](OC(=O)CCC)[C@@]1(O)[C@H]2O[C@H]2N=C(CCC)O[C@]21C` belongs 20 nM.

One may read the Kd as a measure of binding affinity in units of concentration.
